Results: PubChem BioAssay (NCI)
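Each compound was tested at five concentrations against cells in 96-well plates for 48 hours. GI50 = concentration required for 50% inhibition of growth. TGI is the concentration that stops growth completely.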

Legend:
Assay in all cases: growth of human tumour cells (NCI), 48 h
[1] = test system: COLO 205 colon
[2] = test system: HCT-116 colon
[3] = test system: HCT-15 colon
[4] = test system: HL-60(TB) leukemia
[5] = test system: HOP-92 NSCLC
[6] = test system: HS 578T breast
[7] = test system: IGROV1 ovarian
[8] = test system: KM12 colon
[9] = test system: RPMI-8226 leukemia
[10] = test system: SK-OV-3 ovarian

Structure (SMILES) | GI50 [1] | TGI [1] | GI50 [2] | TGI [2] | GI50 [3] | TGI [3] | GI50 [4] | TGI [4] | GI50 [5] | TGI [5] | GI50 [6] | TGI [6] | GI50 [7] | TGI [7] | GI50 [8] | TGI [8] | GI50 [9] | TGI [9] | GI50 [10] | TGI [10]
CSc1ccc2c(c1)C(=O)c1c-2n(CCCBr)c(=O)c2cc([N+](=O)[O-])ccc12 | 17.8 µM | > 100 µM | 2220 nM | > 100 µM | 47200 nM | > 100 µM | 532 nM | 8.46 µM | 356 nM | 10.3 µM | > 100000 nM | > 100 µM | 12100 nM | > 100 µM | 46.1 µM | > 100 µM | 4110 nM | > 100 µM | 12.1 µM | > 100 µM
CCCCCOc1ccc(/C=N/Nc2cc(C)nc3ccc(Br)cc23)cc1 | 1.96 µM | 3.72 µM | 1780 nM | 3.36 µM | 1570 nM | 3.13 µM | 1910 nM | 3.78 µM | 1360 nM | 2.88 µM | 2330 nM | 5.64 µM | 1720 nM | 3.37 µM | 1.74 µM | 3.19 µM | 1910 nM | 4.17 µM | 1.75 µM | 3.18 µM
CCOC(=O)/C=C(/C)Sc1cc(O)c2ccccc2c1O | 7.22 µM | 20.7 µM | 2050 nM | 4.95 µM | 2540 nM | 8.83 µM | 2290 nM | 5.72 µM | 3210 nM | 11.9 µM | 2260 nM | 6.58 µM | 2260 nM | 17.8 µM | 12.9 µM | 26.8 µM | 2290 nM | 9.09 µM | 13.8 µM | 44.5 µM
